Laboratory results as given in US9045403B2 (Coyote Pharmaceuticals, Inc., priority 2012, dated 2015).

What was measured:
[1] = tested on: Murine neuro2A neuroblastoma cells; assay: Neurite outgrowth of neuro2A cells inhibited with GGTI-298 (Example 30); assay type: cell-based, mouse; conditions: for Relative %: relative to uninhibited count
Protocol: Differentiation was induced and cells incubated with geranylgeranyl transferase I inhibitor, GGTI-298. After 24 h digital images were taken and neurite outgrowth was quantified. The comparisons of the neuroprotective effect of these three compounds are shown below.
The estimated mean log10 counts, from five replicate wells for each treatment group were calculated by PROC GLM in SAS assuming a pooled estimate of variation.
The estimated mean log10 counts from five replicate wells for each treatment group were calculated by PROC GLM in SAS assuming a pooled estimate of variation.
Differences in mean log(counts) between treatments for each concentration were calculated using PROC GLM in SAS. The p-value given is for the comparison of the estimated difference to zero, the expected difference value for no treatment effect. The anti-log of the differences represent the estimated ratio of counts (relative effect on inhibition) and are tabulated below along with the lower and upper 95% confidence intervals.

[2] = mouse, in vivo, po, 12 mg/kg
Protocol: (§1) A total of 84 male mice (64 transgenic Sod1 mutant mice; 20 wild type mice) were included in the study. Dosing was administered daily beginning at postnatal day 38 (P38) via a single bolus oral gavage injection.
(§2) Blood and serum samples from days P70 and P100 were collected on three animals from each of the six treatment groups. Hematology measures were white blood cell count, red blood cell count, hemoglobin, hematocrit, mean corpuscular volume, mean corpuscular hemoglobin, mean corpuscular hemoglobin concentration, and platelets. Chemistry values were alanine aminotransferase, aspartate aminotransferase, albumin, total protein, gamma globulin, blood urea nitrogen, cholesterol, and glucose.

[3] = Blood chemistry and hematology in Sod1 mutant and wild type mice; conditions: daily oral 12 mg/kg
Protocol: as §1, §2

**Q.** For `CC(=O)CC/C=C(\C)CC/C=C(\C)CC/C=C(\C)CCC=C(C)C` [CNS-102], which “Median Counts of cells with neurite outgrowth” value (“Median Counts of cells” for short) ([1]; 10 nM, CNS-101 vs CNS-102 experiment (no inhibition 95.5, PBS 21.5)) is on record?
**A.** 33.8

**Q.** And the Relative % ([1]; 10 nM, CNS-101 vs CNS-102 experiment)?
**A.** 35.4%

**Q.** And the “Median Counts of cells” value ([1]; 100 nM, CNS-101 vs CNS-102 experiment (no inhibition 95.5, PBS 21.5))?
**A.** 43.4

**Q.** What about the Relative % ([1]; 100 nM, CNS-101 vs CNS-102 experiment) of the same compound?
**A.** 45.4%

**Q.** What about the “Median Counts of cells” value ([1]; 100 nM, CNS-102 vs CNS-103 experiment (no inhibition 60.3, PBS 18.5)) of the same compound?
**A.** 33.5

**Q.** And the Relative % ([1]; 100 nM, CNS-102 vs CNS-103 experiment)?
**A.** 55.6%

**Q.** And the “Median Counts of cells” value ([1]; 1000 nM, CNS-101 vs CNS-102 experiment (no inhibition 95.5, PBS 21.5))?
**A.** 51.0

**Q.** What about the Relative % ([1]; 1000 nM, CNS-101 vs CNS-102 experiment) of the same compound?
**A.** 53.4%

**Q.** What about the “Median Counts of cells” value ([1]; 1000 nM, CNS-102 vs CNS-103 experiment (no inhibition 60.3, PBS 18.5)) of the same compound?
**A.** 23.8

**Q.** And the Relative % ([1]; 1000 nM, CNS-102 vs CNS-103 experiment)?
**A.** 39.5%

**Q.** What about the “Median Counts of cells” value ([1]; 10000 nM, CNS-101 vs CNS-102 experiment (no inhibition 95.5, PBS 21.5)) of the same compound?
**A.** 38.2

**Q.** And the Relative % ([1]; 10000 nM, CNS-101 vs CNS-102 experiment)?
**A.** 40%

**Q.** What about the maximum protection ([1]; CNS-101 vs CNS-102 experiment, FIG. 4A) of the same compound?
**A.** ~40%

**Q.** And the maximum protection ([1]; CNS-102 vs CNS-103 experiment, FIG. 4B)?
**A.** ~36%

**Q.** And the “ABSOLUTE BASOPHIL” value [2]?
**A.** 0 per mm^3

**Q.** What about the “BASOPHIL (%)” value [2] of the same compound?
**A.** 0.0%

**Q.** And the CALCIUM [2]?
**A.** 7.7 mg/dL

**Q.** What about the CREATININE [2] of the same compound?
**A.** <1 mg/dL

**Q.** What about the “DIRECT BILIRUBIN” value [2] of the same compound?
**A.** 0.0 mg/dL

**Q.** What about the “EOSINOPHIL (%)” value [2] of the same compound?
**A.** 1.5%

**Q.** And the HCT [2]?
**A.** 46.0%

**Q.** What about the “INDIRECT BILIRUBIN” value [2] of the same compound?
**A.** 0.0 mg/dL

**Q.** And the “LYMPHOCYTE (%)” value [2]?
**A.** 84.0%

**Q.** What about the “MONOCYTE (%)” value [2] of the same compound?
**A.** 0.8%

**Q.** What about the “NRBC (per 100 WBC)” value [2] of the same compound?
**A.** 0.0 per 100 WBC

**Q.** And the PHOSPHORUS [2]?
**A.** 5.7 mg/dL

**Q.** And the “PLATELET COUNT (Thousands)” value [2]?
**A.** 1128.6 Thousands

**Q.** And the “RBC (Millions)” value [2]?
**A.** 8.8 Millions

**Q.** And the “TOTAL BILIRUBIN” value [2]?
**A.** 0.0 mg/dL

**Q.** What about the “WBC (thousands)” value [2] of the same compound?
**A.** 4.7 thousands

**Q.** What about the “blood and neurology examinations (in words)” value [2] of the same compound?
**A.** no abnormalities in blood and neurology examinations

**Q.** What about the “cholesterol levels (in words)” value [3] of the same compound?
**A.** cholesterol levels were reduced
